Assay results reported in US9511064B2, “Combination therapy for the treatment of cancer and immunosuppression” (Basilea Pharmaceutica AG, priority 2012, dated 2016).
Like-named read-outs stand apart in the source and are kept apart here.

Columns and labels:
HL60 tumor cells = test: AlamarBlue conversion cell proliferation assay, HL60 cell line; format: cell-based
Procedure: (§1) The in vitro anti-proliferative activity of compounds of formula (I), metformin and combinations thereof is tested in an AlamarBlue conversion cell proliferation assay (Promega) on HL60 tumor cells and the mouse mast cell line 6.5 (Colombi et al., Oncogene 2011, 30:1551-65). Cells are seeded into 96-well microtiter plates (seeding cell density is 7,000 cells per well in 150 uL Iscove's medium) and test compounds are added (compounds of formula (I) are added from a 10 mM stock solution in DMSO, metformin from a freshly prepared 1 M solution in culture medium). Plates are incubated for 3 days at 37°, 5% CO2 and proliferation is determined by AlamarBlue staining (0.1 vol % added to cultures and incubated for further 4-5 hours). The conversion of AlamarBlue is proportional to live cell number and is read with a fluorescence plate reader (Ex/Em 535/595 nm). Growth is normalized to the untreated controls.

mouse mast cell line 6.5 = test: AlamarBlue conversion cell proliferation assay, 6.5 cell line; format: cell-based
Procedure: as §1

[1] = combined with 4 mM metformin, 3 days incubation, read-out: concentration that inhibits the proliferation of cells by approximately 50% when combined with 4 mM metformin, HL60 cell line
[2] = combined with 4 mM metformin, 3 days incubation, read-out: concentration that inhibits the proliferation of cells by approximately 50% when combined with 4 mM metformin, 6.5 cell line
[3] = read-out: concentration that inhibits the proliferation of cells by approximately 50% when combined with 4 mM metformin, HL60 cell line, 3 days incubation
[4] = read-out: concentration that inhibits the proliferation of cells by approximately 50% when combined with 4 mM metformin, 6.5 cell line, 3 days incubation

Row | SMILES | IC50 (HL60 tumor cells; [1]) [nM] | IC50 (mouse mast cell line 6.5; [2]) [nM] | IC50 (HL60 tumor cells; [3]) [nM] | IC50 (mouse mast cell line 6.5; [4]) [nM]
1 | CCOC(=O)Oc1c(OC)cc(C(=O)O[C@@H]2C[C@@H]3CN4CCc5c([nH]c6cc(OC(=O)CNC(=O)c7ccccc7)ccc56)[C@H]4C[C@@H]3[C@H](C(=O)OC)[C@H]2OC)cc1OC [Example 18, methyl (1R,15S,17R,18R,19S,20S)-17-({4-[(ethoxycarbonyl)oxy]-3,5-dimethoxyphenyl}carbonyloxy)-18-methoxy-6-{[2-(phenylformamido)acetyl]oxy}-3,13-diazapentacyclo[11.8.0.0^2,10.0^4,9.0^15,20]henicosa-2(10),4,6,8-tetraene-19-carboxylate] | 1500 | 1000 | – | –
2 | COC(=O)[C@H]1[C@H]2C[C@@H]3c4[nH]c5cc(OC)ccc5c4CCN3C[C@H]2C[C@@H](OC(=O)c2cc(OC)c(OC(=O)OCc3ccncc3)c(OC)c2)[C@@H]1OC [Example 6, methyl (1R,15S,17R,18R,19S,20S)-17-[(3,5-dimethoxy-4-{[(pyridin-4-ylmethoxy)carbonyl]oxy}phenyl)carbonyloxy]-6,18-dimethoxy-3,13-diazapentacyclo[11.8.0.0^2,10.0^4,9.0^15,20]henicosa-2(10),4,6,8-tetraene-19-carboxylate] | – | – | 2500 | 2500
3 | COC(=O)[C@H]1[C@H]2C[C@@H]3c4[nH]c5cc(OC)ccc5c4CCN3C[C@H]2C[C@@H](OC(=O)c2cc(OC)c(OC(=O)OCc3cc(F)cc(F)c3)c(OC)c2)[C@@H]1OC [Example 33] | 2000 | 2000 | – | –
4 | COC(=O)[C@H]1[C@H]2C[C@@H]3c4[nH]c5cc(OC)ccc5c4CCN3C[C@H]2C[C@@H](OC(=O)c2cc(OC)c(OC(=O)OCc3ccc(Cl)cc3)c(OC)c2)[C@@H]1OC [Example 9, methyl (1R,15S,17R,18R,19S,20S)-17-{[4-({[(4-chlorophenyl)methoxy]carbonyl}oxy)-3,5-dimethoxyphenyl]carbonyloxy}-6,18-dimethoxy-3,13-diazapentacyclo[11.8.0.0^2,10.0^4,9.0^15,20]henicosa-2(10),4,6,8-tetraene-19-carboxylate] | 4000 | 4000 | – | –
5 | COC(=O)[C@H]1[C@H]2C[C@@H]3c4[nH]c5cc(OC)ccc5c4CCN3C[C@H]2C[C@@H](OC(=O)c2cc(OC)c(OC(=O)OCc3cc(Cl)cc(Cl)c3)c(OC)c2)[C@@H]1OC [Example 10, methyl (1R,15S,17R,18R,19S,20S)-17-{[4-({[(3,5-dichlorophenyl)methoxy]carbonyl}oxy)-3,5-dimethoxyphenyl]carbonyloxy}-6,18-dimethoxy-3,13-diazapentacyclo[11.8.0.0^2,10.0^4,9.0^15,20]henicosa-2(10),4,6,8-tetraene-19-carboxylate] | 1000 | 1000 | – | –
6 | COC(=O)[C@H]1[C@H]2C[C@@H]3c4[nH]c5cc(OC)ccc5c4CCN3C[C@H]2C[C@@H](OC(=O)c2cc(OC)c(OC(=O)OCc3ccc(F)cc3)c(OC)c2)[C@@H]1OC [Example 36] | 3000 | 2500 | – | –
7 | COC(=O)[C@H]1[C@H]2C[C@@H]3c4[nH]c5cc(OC)ccc5c4CCN3C[C@H]2C[C@@H](OC(=O)c2cc(OC)c(OC(=O)OCc3cccc(Br)c3)c(OC)c2)[C@@H]1OC [Example 31] | 2000 | 2000 | – | –
8 | CCOC(=O)Oc1c(OC)cc(C(=O)O[C@@H]2C[C@@H]3CN4CCc5c([nH]c6cc(OC(=O)OC(C)(C)C)ccc56)[C@H]4C[C@@H]3[C@H](C(=O)OC)[C@H]2OC)cc1OC [Example 12, methyl (1R,15S,17R,18R,19S,20S)-6-{[(tert-butoxy)carbonyl]oxy}-17-({4-[(ethoxycarbonyl)oxy]-3,5-dimethoxyphenyl}carbonyloxy)-18-methoxy-3,13-diazapentacyclo[11.8.0.0^2,10.0^4,9.0^15,20]henicosa-2(10),4,6,8-tetraene-19-carboxylate] | – | – | 1500 | 1500
9 | COC(=O)[C@H]1[C@H]2C[C@@H]3c4[nH]c5cc(OC)ccc5c4CCN3C[C@H]2C[C@@H](OC(=O)c2cc(OC)c(OC(=O)OCc3cccc(Cl)c3)c(OC)c2)[C@@H]1OC [Example 35] | 2000 | 2000 | – | –
10 | COC(=O)[C@H]1[C@H]2C[C@@H]3c4[nH]c5cc(OC)ccc5c4CCN3C[C@H]2C[C@@H](OC(=O)c2cc(OC)c(OC(=O)OCc3cccc(C(F)(F)F)c3)c(OC)c2)[C@@H]1OC [Example 32] | 2000 | 2000 | – | –
11 | COC(=O)[C@H]1[C@H]2C[C@@H]3c4[nH]c5cc(OC)ccc5c4CCN3C[C@H]2C[C@@H](OC(=O)c2cc(OC)c(OC(=O)OCc3ccccc3)c(OC)c2)[C@@H]1OC [Example 21, methyl (1R,15S,17R,18R,19S,20S)-17-[(4-{[(benzyloxy)carbonyl]oxy}-3,5-dimethoxyphenyl)carbonyloxy]-6,18-dimethoxy-3,13-diazapentacyclo[11.8.0.0^2,10.0^4,9.0^15,20]henicosa-2(10),4,6,8-tetraene-19-carboxylate] | – | – | 3500 | 2000
12 | COC(=O)[C@H]1[C@H]2C[C@@H]3c4[nH]c5cc(OC)ccc5c4CCN3C[C@H]2C[C@@H](OC(=O)c2cc(OC)c(OC(=O)OCc3cccc4ccccc34)c(OC)c2)[C@@H]1OC [Example 34] | 5000 | 7500 | – | –
13 | COC(=O)[C@H]1[C@H]2C[C@@H]3c4[nH]c5cc(OC)ccc5c4CCN3C[C@H]2C[C@@H](OC(=O)c2cc(OC)c(OC(=O)Cc3ccccc3)c(OC)c2)[C@@H]1OC [Example 20, methyl (1R,15S,17R,18R,19S,20S)-17-({3,5-dimethoxy-4-[(2-phenylacetyl)oxy]phenyl}carbonyloxy)-6,18-dimethoxy-3,13-diazapentacyclo[11.8.0.0^2,10.0^4,9.0^15,20]henicosa-2(10),4,6,8-tetraene-19-carboxylate] | – | – | 5000 | 5000
14 | COC(=O)[C@H]1[C@H]2C[C@@H]3c4[nH]c5cc(OC)ccc5c4CCN3C[C@H]2C[C@@H](OC(=O)c2cc(OC)c(OC(=O)OCc3cccnc3)c(OC)c2)[C@@H]1OC [Example 7, methyl (1R,15S,17R,18R,19S,20S)-17-[(3,5-dimethoxy-4-{[(pyridin-3-ylmethoxy)carbonyl]oxy}phenyl)carbonyloxy]-6,18-dimethoxy-3,13-diazapentacyclo[11.8.0.0^2,10.0^4,9.0^15,20]henicosa-2(10),4,6,8-tetraene-19-carboxylate] | 2000 | 2500 | – | –
15 | CCOC(=O)Oc1c(OC)cc(C(=O)O[C@@H]2C[C@@H]3CN4CCc5c([nH]c6cc(OC(C)=O)ccc56)[C@H]4C[C@@H]3[C@H](C(=O)OC)[C@H]2OC)cc1OC [Example 14, methyl (1R,15S,17R,18R,19S,20S)-6-(acetyloxy)-17-({4-[(ethoxycarbonyl)oxy]-3,5-dimethoxyphenyl}carbonyloxy)-18-methoxy-3,13-diazapentacyclo[11.8.0.0^2,10.0^4,9.0^15,20]henicosa-2(10),4,6,8-tetraene-19-carboxylate] | 2000 | 1500 | – | –
16 | COC(=O)[C@H]1[C@H]2C[C@@H]3c4[nH]c5cc(OC)ccc5c4CCN3C[C@H]2C[C@@H](OC(=O)c2cc(OC)c(OC(=O)OCc3cc(OC)cc(OC)c3)c(OC)c2)[C@@H]1OC [Example 8, methyl (1R,15S,17R,18R,19S,20S)-17-{[4-({[(3,5-dimethoxyphenyl)methoxy]carbonyl}oxy)-3,5-dimethoxyphenyl]carbonyloxy}-6,18-dimethoxy-3,13-diazapentacyclo[11.8.0.0^2,10.0^4,9.0^15,20]henicosa-2(10),4,6,8-tetraene-19-carboxylate] | 4000 | 5000 | – | –
17 | CCOC(=O)Oc1c(OC)cc(C(=O)O[C@@H]2C[C@@H]3CN4CCc5c([nH]c6cc(OC(=O)CN)ccc56)[C@H]4C[C@@H]3[C@H](C(=O)OC)[C@H]2OC)cc1OC [Example 16, methyl (1R,15S,17R,18R,19S,20S)-6-[(2-aminoacetyl)oxy]-17-({4-[(ethoxycarbonyl)oxy]-3,5-dimethoxyphenyl}carbonyloxy)-18-methoxy-3,13-diazapentacyclo[11.8.0.0^2,10.0^4,9.0^15,20]henicosa-2(10),4,6,8-tetraene-19-carboxylate] | – | – | 2000 | 1000
18 | CCOC(=O)Oc1c(OC)cc(C(=O)O[C@@H]2C[C@@H]3CN4CCc5c([nH]c6cc(OC(=O)CNC(C)=O)ccc56)[C@H]4C[C@@H]3[C@H](C(=O)OC)[C@H]2OC)cc1OC [Example 17, methyl (1R,15S,17R,18R,19S,20S)-6-[(2-acetamidoacetyl)oxy]-17-({4-[(ethoxycarbonyl)oxy]-3,5-dimethoxyphenyl}carbonyloxy)-18-methoxy-3,13-diazapentacyclo[11.8.0.0^2,10.0^4,9.0^15,20]henicosa-2(10),4,6,8-tetraene-19-carboxylate] | 1500 | 1000 | – | –
